EPA's ToxValDB 9.5 (doi:10.2903/j.efsa.2010.1631)

Legend:
Aphidius rhopalosiphi = assay: LR50; higher = less toxic; conditions: not reported; mortality
Pimephales promelas = conditions: chronic/long-term; duration: 30 days; growth
Daphnia magna = conditions: chronic/long-term; duration: 21 days; reproduction
Bibionidae = conditions: chronic/long-term; duration: 28 days
Anas platyrhynchos = conditions: acute; oral; unspecified; mortality
Mus musculus = conditions: acute; oral; mortality
Tagia sp. = conditions: acute; duration: 14 days; mortality
[1] = chronic/long-term; development
Apis mellifera = conditions: acute; duration: 48 hours; dermal; mortality
Coturnix coturnix = conditions: acute; oral; mortality
Cyprinus carpio = conditions: acute; duration: 96 hours; mortality
Canidae = conditions: oral, Dog Other, body weight

SMILES: CC(=O)O.CCCCCCCCCCCCN=C(N)N [Dodecylguanidine acetate]
- LR50 (Aphidius rhopalosiphi): > 1800 g/ha
- NOEC (Pimephales promelas): 0.099 mg/L
- NOEC (Daphnia magna): 0.0044 mg/L
- NOEC (Bibionidae): 3.2 mg/L
- LD50 (Anas platyrhynchos): 857 mg/kg-day
- LD50 (Mus musculus): 1350 mg/kg-day
- LC50 (Tagia sp.): 547 mg/kg
- NOEC (Tagia sp.): 171 mg/kg
- NOEL [1]: 45 mg/kg-day
- LD50 (Apis mellifera): > 100 µg/piece
- LD50 (Coturnix coturnix): 981 mg/kg-day
- LC50 (Cyprinus carpio): 0.6 µg/mL
- NOAEL (Canidae; chronic, duration: 1 years): 10 mg/kg-day
- NOAEL (Canidae; subchronic, duration: 90 days): 10 mg/kg-day
- LD50 (Rattus norvegicus; acute, oral, mortality): 851 mg/kg-day
- NOEL (Rattus norvegicus; chronic, body weight): 18.6 mg/kg-day
- NOAEL (Rattus norvegicus; reproduction developmental, body weight): 10 mg/kg-day
